Laboratory results published in ChEMBL document CHEMBL2346513, “Synthesis and evaluation of methylsulfonylnitrobenzamides (MSNBAs) as inhibitors of the thyroid hormone receptor-coactivator interaction” (Bioorg Med Chem Lett, 2013).

Assays:
[1] = target: T1, Thyroid hormone receptor beta (Homo sapiens, UniProt P10828); experiment: Inhibition of TRbeta-LBD (unknown origin) interaction to texas red-labeled SRC2-2 peptide by fluorescence polarization assay
T1 sequence (P10828 whole entry): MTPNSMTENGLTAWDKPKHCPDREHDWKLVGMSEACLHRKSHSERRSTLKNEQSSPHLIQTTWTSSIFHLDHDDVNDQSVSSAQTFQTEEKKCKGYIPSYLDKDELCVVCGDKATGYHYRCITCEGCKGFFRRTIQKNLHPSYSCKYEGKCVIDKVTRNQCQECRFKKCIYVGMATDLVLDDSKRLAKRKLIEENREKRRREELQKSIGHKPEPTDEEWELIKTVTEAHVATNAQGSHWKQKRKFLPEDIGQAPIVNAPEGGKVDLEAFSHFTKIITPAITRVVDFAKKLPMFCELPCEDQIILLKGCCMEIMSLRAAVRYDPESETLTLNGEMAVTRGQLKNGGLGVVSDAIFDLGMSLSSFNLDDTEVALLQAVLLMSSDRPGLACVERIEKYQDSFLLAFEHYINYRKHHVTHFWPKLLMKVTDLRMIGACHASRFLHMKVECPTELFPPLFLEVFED

[2] = target: T2, Thyroid hormone receptor alpha (Homo sapiens, UniProt P10827); experiment: Inhibition of TRalpha-LBD (unknown origin) interaction to texas red-labeled SRC2-2 peptide by fluorescence polarization assay
T2 sequence (P10827 whole entry): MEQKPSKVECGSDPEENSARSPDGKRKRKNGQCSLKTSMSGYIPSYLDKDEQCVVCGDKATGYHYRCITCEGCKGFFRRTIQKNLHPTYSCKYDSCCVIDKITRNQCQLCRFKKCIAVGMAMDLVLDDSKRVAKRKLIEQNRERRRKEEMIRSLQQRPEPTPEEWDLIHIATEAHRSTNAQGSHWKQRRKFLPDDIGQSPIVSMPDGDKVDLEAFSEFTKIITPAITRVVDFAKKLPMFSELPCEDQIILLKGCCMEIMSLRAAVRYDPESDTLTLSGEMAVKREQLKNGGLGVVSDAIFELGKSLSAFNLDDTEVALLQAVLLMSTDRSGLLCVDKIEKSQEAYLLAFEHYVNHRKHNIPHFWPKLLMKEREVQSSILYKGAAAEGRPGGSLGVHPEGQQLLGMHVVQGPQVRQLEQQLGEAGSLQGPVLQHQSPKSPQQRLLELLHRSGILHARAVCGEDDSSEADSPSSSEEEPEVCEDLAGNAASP

Vitamin D3 receptor = target: T3, Vitamin D3 receptor (Homo sapiens, UniProt P11473); experiment: Inhibition of VDR (unknown origin) interaction to SRC2-3 peptide by fluorescence polarization assay
T3 sequence (P11473 whole entry): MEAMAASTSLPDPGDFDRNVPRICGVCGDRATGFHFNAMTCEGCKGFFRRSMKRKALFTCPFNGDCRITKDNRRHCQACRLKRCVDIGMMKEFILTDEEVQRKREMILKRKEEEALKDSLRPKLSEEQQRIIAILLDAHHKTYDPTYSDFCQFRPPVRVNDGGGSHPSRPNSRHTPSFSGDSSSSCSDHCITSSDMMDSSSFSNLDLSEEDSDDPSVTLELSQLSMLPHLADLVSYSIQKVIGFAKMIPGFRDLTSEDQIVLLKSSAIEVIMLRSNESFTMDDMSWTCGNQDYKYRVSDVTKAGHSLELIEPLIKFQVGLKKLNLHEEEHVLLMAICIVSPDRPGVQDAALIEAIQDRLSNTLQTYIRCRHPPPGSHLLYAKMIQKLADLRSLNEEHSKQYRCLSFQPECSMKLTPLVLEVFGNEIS

HepG2 = experiment: Cytotoxicity against human HepG2 cells assessed as ATP level after 72 hrs by CellTiter-Glo assay; format: cell-based; conditions: HepG2, 72 h

| Compound | IC50 [1] [µM] | IC50 [2] [µM] | IC50 (Vitamin D3 receptor) [µM] | EC50 (HepG2) [µM] |
| --- | --- | --- | --- | --- |
| CC1CCN(C(=O)CCCNC(=O)c2ccc(S(C)(=O)=O)c([N+](=O)[O-])c2)CC1 | > 60 | > 60 | > 60 | > 27 |
| CS(=O)(=O)c1ccc(C(=O)N2CCC(C(=O)N3CCc4ccccc43)CC2)cc1[N+](=O)[O-] | > 60 | > 60 | > 60 | > 27 |
| CS(=O)(=O)c1ccc(C(=O)NCCC(=O)N2Cc3ccccc3C2)cc1[N+](=O)[O-] | > 60 | > 60 | > 60 | 11.2 |
| CN(Cc1cccc(F)c1)C(=O)CN(C)C(=O)c1ccc(S(C)(=O)=O)c([N+](=O)[O-])c1 | > 60 | > 60 | > 60 | > 27 |
| CS(=O)(=O)c1ccc(C(=O)NCCCC(=O)N2CCC(c3ccccc3)CC2)cc1[N+](=O)[O-] | > 60 | > 60 | > 60 | > 27 |
| CN(Cc1cccc(F)c1)C(=O)CCNC(=O)c1ccc(S(C)(=O)=O)c([N+](=O)[O-])c1 | > 60 | 29 | > 60 | 11.2 |
| CN(C(=O)CNC(=O)c1ccc(S(C)(=O)=O)c([N+](=O)[O-])c1)c1ccccc1 | 5.8 | 4.2 | > 60 | > 27 |
| CN(Cc1ccccc1)C(=O)CCNC(=O)c1ccc(S(C)(=O)=O)c([N+](=O)[O-])c1 | > 60 | > 60 | > 60 | > 27 |
| CN(Cc1ccccc1)C(=O)CN(C)C(=O)c1ccc(S(C)(=O)=O)c([N+](=O)[O-])c1 | > 60 | > 60 | > 60 | > 27 |
| CS(=O)(=O)c1ccc(C(=O)NCC(=O)N2CCC(c3ccccc3)CC2)cc1[N+](=O)[O-] | > 60 | 44 | 37 | > 27 |
| CS(=O)(=O)c1ccc(C(=O)NCCCC(=O)N2CCN(c3ccc(F)cc3)CC2)cc1[N+](=O)[O-] | > 60 | > 60 | 65 | > 27 |
| CN(CC(=O)N1CCN(c2ccccc2)CC1)C(=O)c1ccc(S(C)(=O)=O)c([N+](=O)[O-])c1 | > 60 | > 60 | > 60 | > 27 |
| CC1CCN(C(=O)C2CCN(C(=O)c3ccc(S(C)(=O)=O)c([N+](=O)[O-])c3)CC2)CC1 | > 60 | > 60 | > 60 | > 27 |
| CS(=O)(=O)c1ccc(C(=O)NCCCC(=O)N2CCCCC2)cc1[N+](=O)[O-] | > 60 | > 60 | > 60 | > 27 |
| CN(CC(=O)N1CCc2ccccc21)C(=O)c1ccc(S(C)(=O)=O)c([N+](=O)[O-])c1 | > 60 | > 60 | > 60 | > 27 |
| CN(CC(=O)N1CCN(c2ccccc2F)CC1)C(=O)c1ccc(S(C)(=O)=O)c([N+](=O)[O-])c1 | > 60 | > 60 | > 60 | 10.3 |
| CS(=O)(=O)c1ccc(C(=O)N2CCC(C(=O)N(Cc3ccccc3)Cc3ccccc3)CC2)cc1[N+](=O)[O-] | > 60 | > 60 | > 60 | > 27 |
| CCCN(C(=O)CCCNC(=O)c1ccc(S(C)(=O)=O)c([N+](=O)[O-])c1)c1ccccc1 | > 60 | > 60 | > 60 | > 27 |
| CS(=O)(=O)c1ccc(C(=O)NCC(=O)NC23CC4CC(CC(C4)C2)C3)cc1[N+](=O)[O-] | 16 | 9.6 | > 60 | > 27 |
| CS(=O)(=O)c1ccc(C(=O)NCC(=O)N2CCN(c3ccccc3)CC2)cc1[N+](=O)[O-] | > 60 | > 60 | > 60 | > 27 |

| Compound | IC50 [1] [µM] | IC50 [2] [µM] | IC50 (Vitamin D3 receptor) [µM] | EC50 (HepG2) [µM] |
| --- | --- | --- | --- | --- |
| CN(CC(=O)N1CCN(c2ccc(F)cc2)CC1)C(=O)c1ccc(S(C)(=O)=O)c([N+](=O)[O-])c1 | > 60 | > 60 | > 60 | 17.2 |
| CC(C)N(C(=O)CCNC(=O)c1ccc(S(C)(=O)=O)c([N+](=O)[O-])c1)C(C)C | > 60 | > 60 | > 60 | > 27 |
| CN1CCN(C(=O)C2CCN(C(=O)c3ccc(S(C)(=O)=O)c([N+](=O)[O-])c3)CC2)CC1 | > 60 | > 60 | > 60 | > 27 |
| CC1CCN(C(=O)CCNC(=O)c2ccc(S(C)(=O)=O)c([N+](=O)[O-])c2)CC1 | > 60 | > 60 | > 60 | > 27 |
| CC1Cc2ccccc2N1C(=O)CCNC(=O)c1ccc(S(C)(=O)=O)c([N+](=O)[O-])c1 (stereo not given) | > 60 | > 60 | 55 | > 27 |
| CS(=O)(=O)c1ccc(C(=O)NCC(=O)N2CCCCC2)cc1[N+](=O)[O-] | > 60 | 44 | > 60 | 14 |
| Cc1ccc(N2CCN(C(=O)CCCNC(=O)c3ccc(S(C)(=O)=O)c([N+](=O)[O-])c3)CC2)cc1 | > 60 | > 60 | > 60 | > 27 |
| CS(=O)(=O)c1ccc(C(=O)NCC(=O)N2CCN(c3ccc(C(F)(F)F)cc3)CC2)cc1[N+](=O)[O-] | > 60 | > 60 | > 60 | > 27 |
| Cc1ccc(N2CCN(C(=O)CCNC(=O)c3ccc(S(C)(=O)=O)c([N+](=O)[O-])c3)CC2)cc1 | > 60 | > 60 | > 60 | > 27 |
| CN(CC(=O)N1CCc2ccccc2C1)C(=O)c1ccc(S(C)(=O)=O)c([N+](=O)[O-])c1 | > 60 | > 60 | > 60 | > 27 |
| CN(Cc1ccccc1F)C(=O)CCCNC(=O)c1ccc(S(C)(=O)=O)c([N+](=O)[O-])c1 | > 60 | > 60 | > 60 | > 27 |
| Cc1ccc(N2CCN(C(=O)C3CCN(C(=O)c4ccc(S(C)(=O)=O)c([N+](=O)[O-])c4)CC3)CC2)cc1 | > 60 | > 60 | > 60 | > 27 |
| CN(Cc1ccccc1)C(=O)CNC(=O)c1ccc(S(C)(=O)=O)c([N+](=O)[O-])c1 | 39 | > 60 | > 60 | > 27 |
| CN(Cc1ccccc1F)C(=O)CN(C)C(=O)c1ccc(S(C)(=O)=O)c([N+](=O)[O-])c1 | > 60 | > 60 | > 60 | > 27 |
| CN(Cc1ccccc1)C(=O)CCCNC(=O)c1ccc(S(C)(=O)=O)c([N+](=O)[O-])c1 | > 60 | > 60 | > 60 | > 27 |
| CS(=O)(=O)c1ccc(C(=O)NCCC(=O)N2CCC(c3ccccc3)CC2)cc1[N+](=O)[O-] | > 60 | > 60 | > 60 | > 27 |
| CS(=O)(=O)c1ccc(C(=O)NCCC(=O)N2CCN(c3ccccc3)CC2)cc1[N+](=O)[O-] | > 60 | > 60 | > 60 | > 27 |
| CN(Cc1cccc(F)c1)C(=O)CNC(=O)c1ccc(S(C)(=O)=O)c([N+](=O)[O-])c1 | > 60 | > 60 | > 60 | > 27 |
| CS(=O)(=O)c1ccc(C(=O)N2CCC(C(=O)N3CCC(c4ccccc4)CC3)CC2)cc1[N+](=O)[O-] | > 60 | > 60 | > 60 | > 27 |
| CS(=O)(=O)c1ccc(C(=O)NCC(=O)N2CCN(c3ccc(F)cc3)CC2)cc1[N+](=O)[O-] | > 60 | 58 | 51 | 12.9 |
